The record followed here is PMC6677171, “Subunit interactions and arrangements in the fission yeast Mis16–Mis18–Mis19 complex” (Life Science Alliance, 2019).

In assay [1] the target is T1, Mis16 (Schizosaccharomyces pombe, UniProt O94244).
T1 construct: double-Strep-Tactin tag (TEV protease-cleavable) (N, cleaved yes); made in house; host or cells: insect cells (baculovirus made in Sf21, expression in Hi5)
Nature of the assay: ITC binding of peptides to Mis16. Details: species or system S. pombe. The conditions noted are these: for binding to Mis16 (in words): 30°C, mutants of the Mis19 C-terminal peptide (residues 97–112). The method, then: (§1) ITC experiments were performed at 30°C using an iTC200 (MicroCal). Samples were concentrated in a 50 mM Tris, pH 7.5, 100 mM NaCl, 4% glycerol, and […] buffer. Protein concentrations were determined using a spectrophotometer. The concentration of protein complex in the ITC cell was 26 μM. The lyophilised peptides of histone H4^27–50 or Mis19^97–112 were dissolved in the ITC buffer to a concentration of 260 μM. 3-μl injections were performed at 1,000 rpm stirring speed with an injection spacing of 3 min. The thermodynamic data were processed with the ORIGIN program (MicroCal).

Assay [2] deals with T1, Mis16. Nature of the assay: ITC competition between H4α1 and Mis19 site C peptides for Mis16. Conditions: Mis16 preincubated with one peptide before titration of the second, 30°C, pH 7.5. Format: binding, S. pombe. The method, then: Figure 3.
as §1

For assay [3], the system named is Mis16–Mis18–Mis19 complex. The assay is described as follows: Competition assay by size-exclusion chromatography: disruption of Mis16–Mis18–Mis19 complex. The format is binding, S. pombe. Conditions: preformed complex challenged with peptides from Mis19 N terminus. An excerpt: It has previously been reported that the interaction between Mis18 and Mis 19 occurs via the N-terminal region of Mis19 binding to the C terminus (coiled-coil) of Mis18 ([Hayashi et al, 2014]). We tried to analyse this interaction in more detail. Given that residues 56–112 of Mis19 are involved interactions with Mis16, we constructed two truncations of Mis19 with half of the remaining N-terminal residues deleted in each case (Mis19^27-C and Mis19^44-C). We first asked if these Mis16–Mis19 constructs could still interact with Mis18 in an affinity pull-down experiment (Figs 6A and S6A). […] We then add Mis18 to the Mis16–Mis19 constructs. […] To further analyse these interactions, we carried out competition assays, challenging preformed Mis16–Mis18–Mis19 complex with peptides from the N terminus of Mis19, analysing the results both by size-exclusion chromatography and affinity pull-down assays. […] To try and pinpoint the residues that might be responsible for the interaction with Mis18, we carried out a sequence alignment of the Mis19 N terminus and noticed two conserved stretches of residues characterised by an IxxxF pattern (motif 1) and LxxF (motif 2) (Fig 7A). The two motifs are coincident with the two truncations we identified: between residues 1–27 and 28–44, respectively. As the N terminus of Mis19 is likely to be solvent-exposed (from our crystal structure), we reasoned that the conserved hydrophobic residues probably participate in protein–protein interactions. To test this, we carried out another set of competition experiments using the intact Mis16–18–19 complex and peptides carrying mutations in motifs 1 and 2, separately or combined (Fig 7B).
Figure 6. The Mis19 N terminus binds Mis18. (A) Mis16–Mis18–Mis19 interactions assessed by pull-down. Input proteins are shown on the left. Binding of Mis16–Mis19 and Mis19 truncations to Mis18 are assessed by pull-down of Mis19 (right). (B) Mis16–19–18 binding assessed by size-exclusion and competition assays. Preformed Mis16–18–19 complex was challenged with peptides derived from the N terminus of Mis19 (indicated). […]

The test system of assay [4] is Mis16–Mis18–Mis19 complex. The assay is described as follows: Competition assay by pull-down: disruption of Mis16–Mis18–Mis19 complex. Format: binding, S. pombe. Conditions: preformed Mis16–Mis19–Strep–Mis18 complex challenged with peptide, SDS–PAGE. An excerpt:
It has previously been reported that the interaction between Mis18 and Mis 19 occurs via the N-terminal region of Mis19 binding to the C terminus (coiled-coil) of Mis18 ([Hayashi et al, 2014]). We tried to analyse this interaction in more detail. Given that residues 56–112 of Mis19 are involved interactions with Mis16, we constructed two truncations of Mis19 with half of the remaining N-terminal residues deleted in each case (Mis19^27-C and Mis19^44-C). We first asked if these Mis16–Mis19 constructs could still interact with Mis18 in an affinity pull-down experiment (Figs 6A and S6A). […] We then add Mis18 to the Mis16–Mis19 constructs. […] To further analyse these interactions, we carried out competition assays, challenging preformed Mis16–Mis18–Mis19 complex with peptides from the N terminus of Mis19, analysing the results both by size-exclusion chromatography and affinity pull-down assays. […]
Figure 6. […] (A) Mis16–Mis18–Mis19 interactions assessed by pull-down. […] Binding of Mis16–Mis19 and Mis19 truncations to Mis18 are assessed by pull-down of Mis19 (right). (B) Mis16–19–18 binding assessed by size-exclusion and competition assays. […]
All in vitro pull-down assays were performed using purified proteins or protein complexes. […] Input and pull-down elution samples were analysed by SDS–PAGE.

Assay [5] concerns the target T1, Mis16. Nature of the assay: Co-expression and affinity pull-down/size-exclusion co-purification of Mis19 deletions with Mis16. The format is binding, S. pombe. The conditions noted are these: co-expressed in insect cells, Strep-Tactin tag on Mis16, gel filtration, SDS–PAGE band. From the text: Figure 2. Mis16–Mis19 contact regions. (A) Crystal structure of Mis16–Mis19 highlighting the Mis19-binding sites. Three putative binding sites A, B, and C (lighter to darker orange from N terminus to C terminus) are indicated. (B) Schematic of the various deletion constructs of Mis19 are used for binding studies showing the positions of sites A, B, and C. (C) Constructs containing affinity-tagged Mis16 and the Mis19 deletions shown above were co-expressed and purified by affinity pull-down and size-exclusion chromatography. SDS–PAGE gel of peak fractions is shown. Asterisks indicate impurities. (D) Close-up of the A- and C-binding sites. The locations of the kis1-1 (R65) and eic1-1 (F102) t.s. mutant residues are shown.
The C-terminal interaction of Mis19 with Mis16 (site C in our nomenclature) has been previously described ([An et al, 2018]). […] To test the contribution of the individual sites to the Mis16–Mis19 interaction, various truncated Mis19 constructs were designed, for which site A, […], or both A and C are missing (Fig 2B). Full-length Mis16 and Mis19C (includes sites A, B, and C, residues 52–112), construct 1 (includes site B and C, residues 66–112), construct 2 (includes binding site B, residues 66–99), and construct 3 (includes site A and B, residues 52–99) were co-expressed in insect cells, as the isolated Mis19 truncations cannot be expressed and purified. The complexes were purified using a Strep-Tactin affinity tag on Mis16 and subsequent gel filtration step. All complexes elute from gel filtration as a single species. […] This site is formed by part of the unstructured region of Mis19 running across the top edge of Mis16.
All proteins were expressed in insect cells using standard procedures. Genes were codon-optimised in all cases (GeneArt). Single protein constructs were cloned in pFastBac vectors (Invitrogen), whereas multi-protein complexes were cloned using the MultiBac system ([Fitzgerald et al, 2006]). The Mis16 protein carried a TEV protease-cleavable double-Strep-Tactin tag at the N terminus for purification purposes. All clones were sequence verified. […]

[6] abbreviates: ITC, 50 mM Tris, pH 7.5, 100 mM NaCl, 4% glycerol.

“Also recorded” adds a separate entry of the source. Where no end group is shown, it is not given here.

T1 sequence (O94244 whole entry): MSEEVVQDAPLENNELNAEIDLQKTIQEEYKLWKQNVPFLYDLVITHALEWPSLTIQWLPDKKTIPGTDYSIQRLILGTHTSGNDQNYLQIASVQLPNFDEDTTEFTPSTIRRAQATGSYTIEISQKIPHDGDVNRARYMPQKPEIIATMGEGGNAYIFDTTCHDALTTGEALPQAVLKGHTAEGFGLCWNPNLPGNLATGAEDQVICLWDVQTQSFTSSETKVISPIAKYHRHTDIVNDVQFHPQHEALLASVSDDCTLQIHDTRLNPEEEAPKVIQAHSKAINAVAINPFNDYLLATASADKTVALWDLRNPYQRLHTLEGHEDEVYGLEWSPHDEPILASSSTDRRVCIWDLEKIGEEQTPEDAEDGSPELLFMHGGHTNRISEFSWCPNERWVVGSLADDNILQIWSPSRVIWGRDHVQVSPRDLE

Consider LHNRSFLRRNVRAVKM [Mis19 V101S], for which the “binding to Mis16 (in words)” value at Mis16 [1] (setting [6]) is recorded as “reduced but did not abolish binding”.
As for LHNRVFLRRNVRAVKM [Mis19α2], the “increase in affinity over H4α1” value at Mis16 [1] (ratio of KD values, Mis16, ITC) is on record as 3.6 fold. The “competition / displacement of the other peptide from Mis16 (in words)” value at Mis16 [2] was “capable of competing out histone H4α1”.
Turning to LHNRVSLRRNVRAVKM [Mis19 F102S], the “binding to Mis16 (in words)” value at Mis16 [1] (setting [6]) was “reduced but did not abolish binding”.
The same measure, in the same setting: the entry for “Mis19 R105A: point mutant of the Mis19 C-terminal peptide (residues 97–112) (LHNRVFLRANVRAVKM)” is “substantially reduced binding”.
Regarding “Mis19 V101S F102S R105A: triple mutant of the Mis19 C-terminal peptide (residues 97–112) (LHNRSSLRANVRAVKM; UniProt O42995 97-112, looked up, variant V101S F102S R105A)”, in the assay with Mis16 [1] (setting [6]), the “binding to Mis16 (in words)” value is listed as “completely abolished the interaction”. Further, in the assay with Mis16 [1] (ITC, iTC200, 30°C, 50 mM Tris, pH 7.5, 100 mM NaCl, 4% glycerol, 0.5 TCEP, 26 μM in cell, peptide 260 μM, 3-μl injections, 1,000 rpm, spacing 3 min), the KD result is “no binding”.
In the case of “Mis19^1–27: peptide from the N terminus of Mis19 (MDLMPLEKARAIEIAFDNVFHNTKIPD)”, in assay [3], the “disruption of preformed Mis16–Mis18–Mis19 complex (size-exclusion)” value (“disruption … (size-exclusion)” below) is “no effect on complex formation”. The “disruption of preformed Mis16–Mis18–Mis19 complex (pull-down)” value in assay [4] was “no effect on complex formation”.
For “Mis19^1–44: peptide from the N terminus of Mis19 (MDLMPLEKARAIEIAFDNVFHNTKIPDNLQQFDAILKRLERRRF)”, the “disruption … (size-exclusion)” value in assay [3] was “effectively disrupts the complex, splitting it into a Mis18-containing and Mis16–Mis19–containing fractions”.
For “Mis19^28–44: peptide from the N terminus of Mis19 (NLQQFDAILKRLERRRF)”, the “disruption … (size-exclusion)” value in assay [3] is recorded as “no effect on complex formation”. For the same substance, in assay [4], the “disruption of preformed Mis16–Mis18–Mis19 complex (pull-down)” value was “no effect on complex formation”.
For the substance “construct 1: Mis19 deletion, includes site B and C, residues 66–112 (EFGVKDNHNHPINLHSLRSKSLIRAQGKKLDLHNRVFLRRNVRAVKM; UniProt O42995 66-112, looked up, fragment)”, the “association with Mis16” value in the assay with Mis16 [5] is given as “Mis19 is associated with Mis16”.
For “construct 2: Mis19 deletion, includes binding site B, residues 66–99 (EFGVKDNHNHPINLHSLRSKSLIRAQGKKLDLHN; UniProt O42995 66-99, looked up, fragment)”, the “association with Mis16” value in the assay with Mis16 [5] is given as “only Mis16 could be detected”.
Same read-out and setting: the entry for “construct 3: Mis19 deletion, includes site A and B, residues 52–99 (PRVYETELLVLRFREFGVKDNHNHPINLHSLRSKSLIRAQGKKLDLHN; UniProt O42995 52-99, looked up, fragment)” is “Mis19 is associated with Mis16; also recorded: still able to interact with Mis16, although rather more weakly than the full-length protein”.
